Consider four compounds from patent US5006533A, “Certain 3-bromo-2,6-dimethoxybenzamides and pharmaceutical use thereof” (Boehringer Ingelheim GmbH, priority 1986, dated 1991).

Where a name gives a salt, the structure may show the parent alone.

The subject of series [1] is apomorphine climbing, mouse. The series is described as follows: apomorphine climbing test on the mouse. In kind it is in vivo. To be noted: after 1 h.
The subject of series [2] is rhesus monkeys sensitised with haloperidol. Kind of series: dyskinesia in rhesus monkeys sensitised with haloperidol. In kind it is in vivo, rhesus monkey. To be noted: for Dyskinesia threshold dose p.o.: rhesus monkeys sensitised with haloperidol; for Dyskinesia index I:II: ratio of climbing test ED50 (I) to dyskinesia threshold dose (II). From the text: The dyskinetic effects are among the most disturbing side effects of neuroleptic drugs. These include Parkinsonian manifestations such as tremor, rigidity and akinesia but also dyskinesia in the mouth-tongue-pharynx region.
The investigation of such symptoms in an animal model is possible using rhesus monkeys sensitised with haloperidol. After being given neuroleptic drugs, which have extrapyramidal motor effects in humans, these animals show typical dyskinesia in the mouth and tongue region (according to J. Liebmann and R. Neale, Psychopharmacology 68, 25-29 (1980) modified).

The nature of the next series: LD50 (mouse) p.o. To be noted: in vivo, po.

By ED50 is commonly meant the dose at which the effect has come halfway, by size or by number of responders. A higher ED50 goes with a need for a large dose. Broadly, the LD50 is the dose expected to kill half of the subjects tested. Read a low LD50 as a more toxic substance. `COc1ccc(Br)c(OC)c1C(=O)NC1CC2CC(O)C(C1)N2Cc1ccccc1` (stereo not drawn) [X = H, N-(8-Benzyl-6-hydroxy-3-nortropanyl)-2,6-dimethoxy-3-bromobenzamide fumarate]: in series [1], it took a dose of 1.2 mg/kg to reach the 50% effect level (ED50). In addition, in series [2], the “Dyskinesia threshold dose p.o.” value was over 15 mg/kg and the “Dyskinesia index I:II” value is recorded as under 0.08. This compound came in with an LD50 in the series “LD50 (mouse) p.o.” of about 300 mg/kg.
In turn, `COc1ccc(Br)c(OC)c1C(=O)NC1CC2CC(O)C(C1)N2Cc1ccc(F)cc1` (stereo not drawn) [X = F, N-[8-(4-Fluorobenzyl)-6-hydroxy-3-nortropanyl]-2,6-dimethoxy-3-bromobenzamide-hydrochloride] registered an ED50 in series [1] of 0.63 mg/kg. Besides, in series [2], the “Dyskinesia threshold dose p.o.” value is 8 mg/kg and the “Dyskinesia index I:II” value is listed as 0.078.
`COc1ccc(Br)c(OC)c1C(=O)NC1CC2CCC(C1)N2Cc1ccccc1` (stereo not drawn) [A, N-(8-benzyl-3-nortropanyl)-2,6-dimethoxy-3-bromobenzamide, reference compound] registered an ED50 in series [1] of 1.8 mg/kg. In addition, in series [2], the “Dyskinesia threshold dose p.o.” value turned out to be 10 mg/kg and the “Dyskinesia index I:II” value was found to be 0.18. This compound also registered a 50% lethal dose (LD50) in the series “LD50 (mouse) p.o.” of about 300 mg/kg.
The matching figures for `COc1ccc(Br)c(OC)c1C(=O)NC1CC2CC(O)C(C1)N2Cc1ccc(Cl)cc1` (racemic) [X = Cl, N-[8-(4-Chlorobenzyl)-6-hydroxy-3-nortropanyl]-2,6-dimethoxy-3-bromobenzamide-hydrochloride]: 0.85 mg/kg, 30 mg/kg, 0.028 and over 1000 mg/kg.
